Test results taken from patent publication US20040092491A1, “Method of treating sepsis-induced ARDS” (The Research Foundation of State University of New York, priority 2002, published 2004).
Entries after “also recorded” stand apart in the source; their conditions may differ.

Key:
[1] = test system: MMP-2; test: Rat CLP model: lung tissue MMP-2 level by immunohistochemistry; type: in vivo, Sprague-Dawley rats
Experimental: (§1) Experimental Protocol: Rats were randomly divided into 5 groups: GROUP 1) Sham CLP+2% solution of carboxymethylcellulose (CMC; vehicle for COL-3) in saline-midline laparotomy with cecum exposed and mesentery sharply incised plus oral gavage at the time of surgery with CMC (n=6); GROUP 2) Sham CLP+COL-3 (Collagenex Pharmaceutical, Newtown, Pa.)-midline laparotomy with cecum exposed and mesentery sharply incised plus oral gavage at the time of surgery with COL-3 (30 mg/kg, n=6); GROUP 3) CLP+CMC-midline laparotomy with CLP plus oral gavage at time of surgery with CMC (n=10); GROUP 4) CLP+COL-3 single dose [SD]-midline laparotomy with CLP plus oral gavage at the time of surgery with COL-3 (30 mg/kg, n=9); GROUP 5) CLP+COL-3 multiple dose [MD]-midline laparotomy with CLP plus oral gavage at the time of surgery and at 24 hours post CLP with COL-3 (30 mg/kg each administration for a total dose of 60 mg/kg, n=15). Rats were followed for 168 hours (7 days) with survival defined as hours post-CLP and survival time of each rat recorded. Rats were sacrificed at 168 hours or immediately following death. At necropsy, the left lung was excised and its bronchus cannulated. The lung was inflated to a pressure of 4 cmH2O with 10% formalin. The cannula was clamped and the lung stored in formalin at room temperature for 24 hours. The tissue was blocked in paraffin and serial sections made for staining with hematoxylin and eosin. Additionally, the remaining paraffin section of fixed lung was used for immunohistochemical determination of MMP-2 and MMP-9.
(§2) Lung tissue MMP-2 and MMP-9 levels: The levels of alveolar tissue MMP-2 and MMP-9 was assessed by immunohistochemical analysis as described elsewhere. Briefly, four micrometer formalin fixed paraffin sections were treated with xylene to remove paraffin and hydrated. The paraffin sections were treated with 0.4% pepsin for 45 minutes at +37° C. For immunostaining VECTASTAIN™ Rabbit ABC Elite Kit (Vector Laboratories, Burlingame, Calif.) was used according to manufactures instructions. […]

[2] = test system: lung tissue; test: Porcine SMA+FC model: morphometric analysis of lung tissue and lung water; type: in vivo, pigs
Text: (§3) A sepsis-induced ARDS porcine model was developed. […] In addition, the protocol included a 3-day termination period, due to the severity of the ARDS associated with this model and the desire to obtain clinically relevant end-point data on all animals.

[3] = test system: sepsis-induced ARDS (cecal ligation and puncture); test: Rat cecal ligation and puncture (CLP) model of sepsis-induced ARDS: survival; type: in vivo, Sprague-Dawley rats; conditions: for Mortality at 168 hours (7 days): CLP+CMC 70%
Experimental: Surgical Procedure: Male Sprague-Dawley rats weighing between 250-300 g were acclimatized to the laboratory environment for one week prior to surgery. Free access to food and water was available for this time period. Rats were anesthetized with intraperitoneal (IP) Ketamine (90 mg/kg)/Xylazine (10 mg/kg ). Sepsis was produced using a modification of the cecal ligation and puncture (CLP) technique described by Chaudry et al. After the abdominal fur was shaved, a 2 cm midline incision was made through the skin and peritoneum. The cecum was identified and withdrawn through the incision. The avascular portion of the mesentery was sharply incised and the cecum was ligated just below the ileocecal valve with a 3-0 silk suture, so that intestinal continuity was maintained. Using an 18 gauge needle, the cecum was perforated in two locations on the antimesenteric surface and was gently compressed until feces were extruded to ensure patency of the holes. The bowel was then returned to the abdomen and the incision was closed in 2 layers using 3-0 Prolene™ for the muscle and 2-0 silk for the skin. Each rat received 10 cc physiological saline subcutaneously immediately after the procedure and at 12 and 24 hours post-surgery. The rats were allowed to recover with water and food provided ad libitum throughout the remainder of the study.
as §1
Statistical analysis: Survival rates were evaluated using the Kaplan and Meier method and the significance was determined by the generalized Wilcoxon method. Differences between groups were analyzed by one-way analysis of variance. When the F ratio indicated significance, a Newman-Keul test was used to identify individual differences. A p value less than 0.05 was considered significant. Correlations between COL-3 concentration and survival, COL-3 concentration and MMP-2 and MMP-9 levels and levels of MMP-2 and MMP-9 and survival were determined by simple linear regression analysis.

[4] = test system: MMP-9; test: Rat CLP model: lung tissue MMP-9 level by immunohistochemistry; type: in vivo, Sprague-Dawley rats
Experimental: as §1, §2

[5] = test system: Interleukin-1; test: Porcine SMA+FC model: Interleukin-1 concentration in BALF; type: in vivo, pigs; conditions: between groups
Text: (§4) In addition, the protocol included a 3-day termination period, due to the severity of the ARDS associated with this model and the desire to obtain clinically relevant end-point data on all animals.

[6] = test system: interleukin-6; test: Porcine SMA+FC model: interleukin-6 concentration in BALF; set-up: species or system pigs; conditions: pig, in vivo
Text: as §3

[7] = test system: IL-10; test: Porcine SMA+FC model: IL-10 concentration in BALF; set-up: species or system pigs; conditions: pig, in vivo
Text: as §4

[8] = CLP+COL-3 (MD) vs CLP+CMC and CLP+COL-3 (SD)
[9] = COL-3 administration, dose dependent fashion, vs CLP+CMC
[10] = morphometric analysis of lung tissue

SMILES: NC(=O)C1=C(O)C[C@@H]2C[C@@H]3Cc4cccc(O)c4C(=O)C3=C(O)[C@]2(O)C1=O [COL-3, 6-demethyl-6-deoxy-4-de(dimethylamino)tetracycline]
- Lung tissue level of MMP-2 [1, 8]: further reduction
- Lung tissue level of MMP-2 ([1]; CLP+COL-3 (SD) vs CLP+CMC): significantly reduced
- Alveolar tissue level of MMP-2 [1, 9]: significantly reduced
- Number of neutrophils sequestered in the lung ([2]; SMA+FC and SMA+FC+COL-3 groups vs Control Group, morphometric assessment): increased equally
- Decrease in hyline membranes [2, 10]: 94%
- Reduction in alveolar edema [2, 10]: 62%
- Decrease in lung water ([2]; pig, in vivo): 41%
- Seven day survival rate ([3]; CLP+COL-3 (MD), repeat dose at 24 hours post CLP, p<0.05 vs CLP+CMC and CLP+COL-3 (SD)): enhanced survival benefit
- Mortality at 168 hours (7 days) ([3]; CLP+COL-3 (MD): 30 mg/kg at surgery and at 24 hours post CLP): 33%
- Seven day survival rate ([3]; CLP+COL-3 (SD) vs CLP+CMC, p<0.05): significant improvement in survival
- Mortality at 168 hours (7 days) ([3]; CLP+COL-3 (SD): single prophylactic dose 30 mg/kg oral gavage at surgery): 54%
- Survival with delayed administration ([3]; COL-3 given as much as 12 hours following CLP): significantly improve survival
- Survival of sham animals ([3]; Sham CLP+COL-3, 30 mg/kg oral gavage, 168 hours): all survived
- Lung tissue level of MMP-9 [4, 8]: further reduced the level of MMP-9 to Sham CLP levels; also recorded: significantly reduced
- Lung tissue level of MMP-9 ([4]; CLP+COL-3 (SD) vs CLP+CMC): reduced MMP-9 levels compared to the CLP+CMC group, but was not statistically significant
- Alveolar tissue level of MMP-9 [4, 9]: significantly reduced
- Interleukin-1 concentration [5]: not significantly different
- Increase in interleukin-6 concentration in BALF [6]: blocked the increase
- Increase in IL-10 concentration in BALF [7]: blocked the increase
